Where two headings read alike, the source gives them in different places.
What was measured:
[1] = Cytotoxicity assay in MT-4 cells; type: cell-based; conditions: human, uninfected MT-4 cells
Method: (§1) For the antiviral assay utilizing MT-2 and MT-4 cells, 50 μl of a 2× test concentration of 5-fold serially diluted compound in culture medium with 10% FBS was added to each well of a 96-well plate (9 concentrations) in triplicate. MT-2 and MT-4 cells were infected with HIV-1 IIIb at a multiplicity of infection (MOI) of 0.01 for 3 h. Fifty microliters of infected cell suspension in culture medium with 10% FBS (∼1.5 × 10^4 cells) then was added to each well containing 50 μl of diluted compound. The plates were then incubated at 37°C for 5 days. After 5 days of incubation, 100 μl of CellTiter-Glo reagent (Promega Biosciences, Inc., Madison, WI) was added to each well containing MT-2 or MT-4 cells. Cell lysis was carried out by incubation at room temperature for 10 min and chemiluminescence was read. For compound cytotoxicity assessment, the protocol was identical except that uninfected cells were used and compounds were serially diluted 3-fold.

HIV-2 CDC 310319 = assay: Antiviral assay against HIV-2 isolate in fresh human PBMCs (RT endpoint); conditions: Human immunodeficiency virus 2, PBMC
Influenza A/PC/1/73 = assay: microbe, parasite or virus in culture; type: cell-based; conditions: NHBE
[2] = system: inhibitor-selected HIV-1 IIIb passages; assay: Phenotypic profile of selected HIV-1 passages; type: cell-based; conditions: Human immunodeficiency virus 1, IIIB
HCV 1b Replicon = assay: Anti-HCV activity, HCV 1b replicon; conditions: Hepatitis C virus, Huh-7
HIV-1 IIIb [3] = assay: HIV breakthrough selection in MT-2 cells; conditions: MT-2, HIV-1 IIIb; FTC 4× EC95, EVG 5× EC95, BIC and DTG 2.5× and 5× EC95; up to day 32
HIV-1 BaL [4] = conditions: primary CD4+ T-cells, 35 days, drug at tissue culture equivalent clinical Cmin (FTC 160 × EC50)
HIV-1 IIIb [5] = assay: Antiviral assay in MT-4 cells; type: cell-based; conditions: Human immunodeficiency virus 1, MT4, 120 h, 5 days
Method: as §1

[6] = system: NRTI-, NNRTI- and PI-Resistant HIV-1 Mutants; assay: Antiviral activity against NRTI-, NNRTI- and PI-resistant HIV-1 mutants; type: cell-based; conditions: Human immunodeficiency virus 1; WT, Table S7
RSV strain A2 = assay: microbe, parasite or virus in culture; type: cell-based, respiratory syncytial virus; conditions: human respiratory syncytial virus, HEp-2
HIV-1 BaL [7] = assay: Antiviral assay in monocyte-derived macrophages (p24 ELISA); conditions: Human immunodeficiency virus 1, BAL, Macrophage
Source text: (§2) Freshly isolated human peripheral blood mononuclear cells (PBMCs) were obtained from healthy volunteers (supplied by AllCells, Inc., Alameda, CA). Blood donors were negative for HIV-1, hepatitis B, and hepatitis C viral infections. CD4^+ T lymphocytes were isolated by negative selection using a magnetically labeled antibody cocktail ([sequence] Technologies Inc., Vancouver, Canada) and cultured in RPMI cell culture media (Life Technologies, Grand Island, NY) supplemented with 10% FBS. CD4^+ T cells were activated for 48 h at 37°C by addition of 1 μg/ml phytohemagglutinin (PHA; Sigma, St. Louis, MO) and 5 ng/ml interleukin-2 (IL-2; Roche Diagnostics, Indianapolis, IN).
(§3) A 3-fold serial dilution of test compounds in RPMI medium was added to triplicate wells and incubated at 37°C for 5 days. Human monocytes were seeded on 96-well plates at a density of 3 × 10^5 cells per well, differentiated into adherent macrophages, and then infected with HIV-1 BaL virus in 50 μl RPMI for 3 h at 37°C. […] The supernatants derived from the CD4^+ T-cell and macrophage cultures were harvested 6 and 12 days postinfection, respectively, and the amount of HIV present was quantified by p24 enzyme-linked immunosorbent assay (ELISA) (PerkinElmer, Waltham, MA).

HIV-1 IIIb [8] = assay: microbe, parasite or virus in culture; conditions: Human immunodeficiency virus 1, IIIB, MT4
Method: Each compound series was prepared several times independently in quadruplicate to capture the variations in Hill slope associated with preparation of compound serial dilutions. The assay was performed in a 384-well format. MT-4 cells were infected in bulk at the same MOI as that described above, and the plates were developed with CellTiter-Glo reagent 5 days postinfection.

[9] = system: INSTI-resistant HIV-1 mutants (HXB2); assay: microbe, parasite or virus in culture; type: cell-based
HIV-1 IIIb [10] = assay: Antiviral assay in MT-2 cells; type: cell-based
Method: as §1

HBV Production = assay: microbe, parasite or virus in culture; conditions: Hepatitis B virus
Influenza B/LEE/40 = assay: microbe, parasite or virus in culture; type: cell-based; conditions: NHBE
in vitro = conditions: human, CC50 in Primary Human Hepatocytes
HIV-1 BaL [11] = assay: Antiviral assay in primary CD4+ T lymphocytes (p24 ELISA); conditions: Human immunodeficiency virus 1, BAL
Source text: as §2, §3

[12] = Cytotoxicity in AD38 cells; conditions: human
HCV 2a Replicon = assay: Anti-HCV activity, HCV 2a replicon; conditions: Hepatitis C virus, Huh-7

C[C@@H]1CCO[C@H]2Cn3cc(C(=O)NCc4ccc(F)cc4F)c(=O)c(O)c3C(=O)N12 [DTG, Dolutegravir]
CC50 at 5 days [1]: 14700 nM
EC50 (HIV-2 CDC 310319): 2.5 ± 0.5 nM
EC50 (Influenza A/PC/1/73): 12800 nM
EC50 ([2]; 480 h, selected virus EVG P2 (day 20, 7.2 nM)): 5.4 nM
EC50 ([2]; HIV-1-IIIb (unselected)): 2.5 nM
EC50 ([2]; selected virus BIC P3 (day 47, 6 nM)): 3.6 nM
EC50 ([2]; selected virus BIC P5 (day 71, 12 nM)): 6.4 nM
EC50 ([2]; selected virus BIC P6 (day 86, 24 nM)): 8.3 nM
EC50 ([2]; selected virus BIC P8 (day 156, 96 nM)): 12 nM
EC50 ([2]; selected virus BIC P9 (day 181, 192 nM)): 19.1 nM
EC50 ([2]; selected virus BIC P10 (day 234, 384 nM)): 14.7 nM
EC50 ([2]; selected virus DTG P3Lo (day 59, 6.4 nM)): 3.2 nM
EC50 ([2]; selected virus DTG P4 (day 87, 9.6 nM)): 7.8 nM
EC50 ([2]; selected virus DTG P5 (day 97, 14.4 nM)): 10.3 nM
EC50 ([2]; selected virus DTG P7 (day 139, 32.4 nM)): 12.4 nM
EC50 ([2]; selected virus DTG P9 (day 174, 72.9 nM)): 15.6 nM
EC50 ([2]; selected virus DTG P10 (day 202, 109.4 nM)): 19.7 nM
EC50 ([2]; selected virus EVG P4 (day 41, 28.8 nM)): 7.1 nM
EC50 ([2]; selected virus EVG P6 (day 56, 115 nM)): 7.1 nM
EC50 ([2]; selected virus EVG P7 (day 67, 230 nM)): 8.1 nM
EC50 ([2]; selected virus EVG P9 (day 94, 922 nM)): 6.6 nM
EC50 ([2]; selected virus EVG P10 (day 119, 1843 nM)): 3.5 nM
EC50 (HCV 1b Replicon): > 44000 nM
day postinfection of HIV-1 breakthrough (HIV-1 IIIb [3]): no virus breakthrough was observed
Frequency of Viral Breakthrough with RAMs (HIV-1 BaL [4]): 0%
p24+ Wells (HIV-1 BaL [4]): 0/24
EC50 (HIV-1 IIIb [5]): 1.5 ± 0.3 nM
EC50 [6]: 1.6 ± 0.5 nM
EC50 (RSV strain A2): > 50000 nM
EC50 (HIV-1 BaL [7]): 3.1 ± 2.5 nM
EC50 (HIV-1 IIIb [8]): 1.7 ± 0.2 nM
EC50 ([9]; Human immunodeficiency virus 1, HXB2, IN mutant E92Q): 1.8 ± 0.5 nM
EC50 ([9]; Human immunodeficiency virus 1, HXB2, IN mutant E92Q/N155H): 2.8 ± 0.6 nM
EC50 ([9]; Human immunodeficiency virus 1, HXB2, IN mutant E138K/Q148K): 13.7 ± 2.1 nM
EC50 ([9]; Human immunodeficiency virus 1, HXB2, IN mutant G140S/Q148R): 6.5 ± 1.2 nM
EC50 ([9]; Human immunodeficiency virus 1, HXB2, IN mutant M50I (BIC/DTG selection)): 2 ± 0.2 nM
EC50 ([9]; Human immunodeficiency virus 1, HXB2, IN mutant M50I/R263K (BIC selection)): 3.6 ± 0.5 nM
EC50 ([9]; Human immunodeficiency virus 1, HXB2, IN mutant M50I/S119R/R263K (DTG selection)): 6.2 ± 2.4 nM
EC50 ([9]; Human immunodeficiency virus 1, HXB2, IN mutant N155H): 2.4 ± 0.6 nM
EC50 ([9]; Human immunodeficiency virus 1, HXB2, IN mutant N155H/Q148R): 4.7 ± 1.5 nM
EC50 ([9]; Human immunodeficiency virus 1, HXB2, IN mutant Q148R): 1 ± 0.3 nM
EC50 ([9]; Human immunodeficiency virus 1, HXB2, IN mutant R263K (BIC/DTG selection), Table 7): 3.6 ± 0.4 nM
EC50 ([9]; Human immunodeficiency virus 1, HXB2, IN mutant R263K, Table 6): 2.5 ± 0.4 nM
EC50 ([9]; Human immunodeficiency virus 1, HXB2, IN mutant S119R (DTG selection)): 2.1 ± 0.7 nM
EC50 ([9]; Human immunodeficiency virus 1, HXB2, IN mutant S119R/R263K (DTG selection)): 3.6 ± 0.8 nM
EC50 ([9]; Human immunodeficiency virus 1, HXB2, IN mutant S153Y (DTG selection)): 4 ± 1.1 nM
EC50 ([9]; Human immunodeficiency virus 1, HXB2, IN mutant S153Y/R263K (DTG selection)): 6.4 ± 0.8 nM
EC50 ([9]; Human immunodeficiency virus 1, HXB2, IN mutant Y143R): 1.9 ± 0.5 nM
EC50 ([9]; Human immunodeficiency virus 1, HXB2, WT (HXB2), Table 6, read-out: EC50): 1.4 ± 0.3 nM
levels of resistance of double IN mutants ([9]; {}): 2.1-10 fold
EC50 (HIV-1 IIIb [10]; Human immunodeficiency virus 1, IIIB, MT2, Table S9 footnote b, read-out: EC50 previously determined (start of resistance selection at twice the EC50)): 1.6 nM
EC50 (HIV-1 IIIb [10]; Human immunodeficiency virus 1, MT2, 120 h, MT-2 cells, HIV-1 IIIb, 5 days, read-out: EC50): 1.5 ± 0.2 nM
EC50 (HBV Production): > 50000 nM
EC50 (Influenza B/LEE/40): 15100 nM
CC50 (in vitro; Donor 1): > 100000 nM
CC50 (in vitro; Donor 2): > 100000 nM
EC50 (HIV-1 BaL [11]): 1 ± 0.3 nM
CC50 at 5 days [12]: > 50000 nM
EC50 (HCV 2a Replicon): > 44000 nM
